“Also recorded” adds a separate entry of the source.
Key:
[1] = tested on: panel of five strains of microorganisms; assay: MIC comparison of 1,1- and 1,4-CHDM (Example 6), statements over the panel; format: cell-based; conditions: MIC at 24, 48 and 72 hours
Procedure: The antimicrobial activities of 1,4-cyclohexanedimethanol (1,4-CHDM) and 1,1-cyclohexanedimethanol (1,1-CHDM) have been determined. […] MICs were individually calculated for three consecutive days with both 1,1-cyclohexanedimethanol and the 31% cis:69% trans mixture of 1,4-cyclohexanedimethanol. Both compounds were evaluated against a panel of five strains of microorganisms.
Strains P. aeruginosa, C. albicans, E. coli, A. niger and S. aureus were purchased from the American Type Culture Collection (Manassas, Va.). […] Absorbance measurements were taken with a TECAN GENios Pro microplate reader. […]
Each plate was covered and incubated at the appropriate temperature and turbidity as a measure of cell density was determined via absorbance measurement at 612 nm using a microplate reader. […] The raw data was exported into an Excel spreadsheet and the MIC values were determined and expressed as wt %. The absorbance of each inoculated CHDM well was retrieved by first subtracting out the average reading for each uninoculated well, then by comparison to a positive threshold to determine positive or negative status for growth. The positive threshold was calculated by multiplication of the average absorbance for the inoculated media-only wells by 0.05. The MIC was determined as the lowest test concentration resulting in all three replicate wells displaying values below the positive threshold.

[2] = Solubility in aqueous growth media; format: physicochemical
Source text: Final results have been summarized below in Table 59.

Aspergillus niger = assay: Test for adequate preservation in skin cream formulation (microorganism counts); format: cell-based; conditions: skin cream emulsion pH 6.75; concentration in label
Procedure: (§1) A test for adequate preservation was carried out in accordance with the European Pharmacopea (6.0) and United States Pharmacopea (5.1). The testing consisted of the inoculation of a skin cream formulation serving as an emulsion substrate. The skin cream formulation having a pH of 6.75 was as follows: […]
(§2) This skin cream was the emulsion substrate, which formed the base for all further experimentation.
(§3) For Examples 3.1 through 3.10, 390.0 g cream were weighed into a 600-ml beaker. The cream was stirred at room temperature while adding the ingredients specified in Table 51. Each sample was stirred for 2 hours, then placed in the refrigerator until inoculated.
(§4) For Examples 3.11 and 3.12, 179.4 g cream were weighed into a 400-ml beaker. The cream was stirred at room temperature while adding the specified ingredients.
(§5) The samples of Examples 3.1 through 3.10 were challenged with specific organisms (see Table 51) to produce a contamination of between 1.0×10^5 cfu/g and 1.0×10^6 cfu/g. The actual inoculation counts resulting from these challenges were immediately determined by diluting in sterile buffered water and (spread plate method) plating for enumeration.
(§6) Challenge organisms were prepared in Mueller-Hinton broth, allowed to grow for 72 hours at 35° C.+/−2° C., centrifuged at 2500 rpm for 5 minutes, and the supernatant broth was removed. The microbial pellet was then re-diluted with sterile buffered water to a turbidity that matched previous 1.0×10^8 cfu/g concentrations of that organism's specific growth curve.
(§7) The test emulsions were maintained within a specific temperature range optimal for the organisms; 35° C.+/2° C. for the bacteria and 22° C.+/−2° C. for the fungi, for the first three days. They were kept at ambient room temperature for the subsequent time periods.
(§8) Subculture samples of approximately 1 gram were taken for counts at 7, 14, and 30 days and incubated under optimal conditions and nutrition for no less than 5 days. Subcultures were diluted 1:2, 1:10, 1:100, . . . , 1:10,000 and plated using the spread plate method onto Plate Count Agar and onto SAB Dextrose Agar for the Candida and Aspergillus species; and incubated as follows: 35° C.+/−2° C. for the Plate Count Agar and 22° C.+/−2° C. for the SAB Dextrose plates of Candida albicans and Aspergillus niger. Negative results were not reported before 7 days incubation, and counts were performed after no less than 5 days incubation. Because of the high viscosity of the test emulsion, at least a 1:2 dilution was required to perform the spread plate subcultures. 0-30 counts represent a 1 to 2 dilution, numbers […] a 1:10 dilution; and the rest represent dilutions of 1:100, 1:1000, or 1:10,000. […]

Candida albicans = assay: as above; format: cell-based; conditions: skin cream emulsion pH 6.75; concentration in label
Procedure: as §1, §2, §3, §4, §5, §6, §7, §8

[3] = tested on: Aspergillus niger ATCC 16404; assay: MIC determination and synergy testing (Kull synergy index), microplate; format: cell-based; conditions: A. niger; plate 154C; day 3; MP and CHDM
Procedure: (§9) The test cultures are listed in Table 7 along with the incubation temperatures used for growth and minimum inhibitory concentration (MIC) testing. […] C. albicans was cultured in Sabouraud dextrose broth (SDB) for approximately 44-52 hours for preparation of inoculum. A. niger was cultured on Sabouraud dextrose agar (SDA) for 3-4 days until there was confluent growth and visible spore formation. Spores were harvested from the SDA plates by flooding the surface of the plate with 5-10 mL of phosphate-buffered saline (PBS) and gently spreading the liquid across the surface of the plate with a sterile T-shaped plastic spreader (Copan Diagnostics) until there was a well-mixed suspension of spores. The resulting spore suspension was collected using a serological pipette and stored at 2-8° C. until use.
(§10) Inoculum concentration was determined by dilution plating of the cultures or spore suspension. A serial dilution in PBS was made to 10^−8 for the bacterial cultures or 10^−5 for the fungal cultures. Fifty or 100 μL of the final dilution was spread on two Trypticase-soy agar (TSA) plates for bacteria or two SDA plates for fungi. After 24 to 48 hours plates were counted and the concentrations used in each experiment were calculated.
The A. niger spore suspensions were concentrated to a level of 1-2×10^8 spores/mL by centrifugation and resuspension in a portion of the resulting supernatant.
(§11) The antimicrobial agents tested for synergy along with the respective diluents and working stock solution concentrations are shown below. For determination of MIC ranges, individual antimicrobial agent stock solutions were added to sterile medium to yield the highest level test concentrations, and then serially diluted in the medium to prepare the range of test concentrations. For synergy testing individual test concentrations were prepared in sterile medium, and then blended to form the desired combinations.
(§12) MICs were determined using a high-throughput microplate method. Individual antimicrobial agents were added to TSB (pH 7.3) for bacterial testing or SDB (pH 5.6) for fungal testing at the highest concentration to be tested. A serial dilution series was prepared at a dilution ratio of 1:1.3333 such that a one log range was covered in nine dilutions. Two-hundred microliters of the diluted antimicrobial agents were dispensed into four wells each of a sterile, 96-well, flat-bottom microplate (Nalge Nunc International). Four additional wells of the highest concentration were dispensed to serve as uninoculated high-level controls. Eight additional wells containing only broth medium were also prepared, four to serve as negative controls and four as positive controls. Three wells of each antimicrobial agent dilution were inoculated with one of the test strains in Table 7. The final well of each antimicrobial agent dilution was left uninoculated to serve as a control (and means of compensating) for any absorbance/turbidity due to the test compounds.
Microplates were inoculated using the cultures or spore suspensions prepared as described above. The S. aureus cultures were used undiluted, while the E. coli and P. aeruginosa cultures were used either undiluted or after a 1:2 dilution in sterile TSB. The C. albicans cultures were used either undiluted or following a 2-fold concentration by centrifugation. One of two means of inoculation was used to deliver a final concentration of approximately 10^5 colony-forming units (CFU)/mL of C. albicans, 10^5 spores/mL of A. niger, or 10^6 CFU/mL of bacteria. The primary method used a stainless steel pin replicator (Nalge Nunc International) mounted on a hand-operated bench-top press (Schmidt Technology Corporation) fitted with a custom-built microplate holder to dispense one microliter of each inoculum from a “master” plate containing 50-100 μL of culture into the wells of the test plate. The pin replicator was sterilized before and between inoculations by immersing in ethanol and flaming. […]

[4] = tested on: Pseudomonas aeruginosa ATCC 27853; assay: as above; format: cell-based; conditions: MP: MIC alone (QB) or conc. in combination with CHDM (b); plate 146E; day 1
Procedure: as §9, §10, §11, §12
(§13) Microplates were inoculated using the cultures or spore suspensions prepared as described above. The S. aureus cultures were used undiluted, while the E. coli and P. aeruginosa cultures were used either undiluted or after a 1:2 dilution in sterile TSB. The C. albicans cultures were used either undiluted or following a 2-fold concentration by centrifugation. One of two means of inoculation was used to deliver a final concentration of approximately 10^5 colony-forming units (CFU)/mL of C. albicans, 10^5 spores/mL of A. niger, or 10^6 CFU/mL of bacteria. The primary method used a stainless steel pin replicator (Nalge Nunc International) mounted on a hand-operated bench-top press (Schmidt Technology Corporation) fitted with a custom-built microplate holder to dispense one microliter of each inoculum from a “master” plate containing 50-100 μL of culture into the wells of the test plate. The pin replicator was sterilized before and between inoculations by immersing in ethanol and flaming. The alternative method of inoculation was by directly pipetting 20 μL of a 1:20 dilution of each culture or spore suspension into the appropriate wells of the test plates.

[5] = tested on: Staphylococcus aureus ATCC 25923; assay: as above; format: cell-based; conditions: MP: MIC alone (QB) or conc. in combination with CHDM (b), plate 166D
Procedure: as §9, §10, §11, §12, §13

Row | Compound | Antimicrobial efficacy (MIC) compared with 1,4-CHDM (in words) [1] | Antimicrobial efficacy (MIC) compared with 1,4-CHDM (in words) ([1]; listed as 1,1-cyclohexanedimethanol) | Solubility [2] | Antimicrobial activity against Aspergillus niger in skin cream (in words) (Aspergillus niger) | Antimicrobial activity against Candida albicans in skin cream (in words) (Candida albicans) | QB/b: concentration of MP (MIC alone, or in the combination at an inhibitory concentration) [3] [weight percent] | SI (synergy index) [3] | QB/b [4] | QB/b ([5]; day 1) | QB/b ([5]; day 2)
1 | OCC1(CO)CCCCC1 [1,1-CHDM, 1,1-cyclohexanedimethanol] | significant improvement in efficacy over 1,4-CHDM; also recorded: lower MIC values; also recorded: improved efficacy over 1,4-CHDM | measurable increase in antimicrobial efficacy over that of 1,4-cyclohexanedimethanol; also recorded: Antimicrobial efficacy increased against four of the five test organisms | ≤ 2.25 % (w/v) |  |  |  |  |  |  | 
2 | COC(=O)c1ccc(O)cc1 [MP, Methylparaben, reference compound] |  |  |  | not at this low concentration | not at this low concentration | 0.050 | 1.00 | 0.14 | 0.23 | 0.23

From patent US20110028566A1, “COMPOSITIONS AND PRODUCTS CONTAINING CYCLOALIPHATIC DIOL ANTIMICROBIAL AGENTS AND METHODS OF USING THE COMPOSITIONS AND PRODUCTS” (EASTMAN CHEMICAL COMPANY, priority 2009, published 2011)
